Earlier results as cited in US10220158B2 (kaleo, Inc., priority 2014, dated 2019).

Details: jet injector vs conventional syringe

SMILES: Cc1ncc2n1-c1ccc(Cl)cc1C(c1ccccc1F)=NC2 [midazolam]
- peak midazolam plasma concentrations produced faster: over 30%
